Assay results reported in patent US20070112043A1, “Acylated and non-acylated imidazo[2,1-b]-1,3,4,-thiadiazole-2-sulfonamides, and uses thereof” (priority 2003, published 2007).
Values after ≈ are worked out from the molar mass of the structure shown. Values joined by “and” are separate entries in the source; they are usually repeats but may differ in a detail not shown here. Equal values may be shown once. Read-outs that look alike come from different tables or passages of the source. Each block holds one compound with its values, some of them ahead of it.

Experiments:
[1] = Pharmacokinetics of primary sulfonamides and Na salts (oral, SC); assay type: in vivo; settings: gavage 10 mg/kg
Method: HPCD formulations of compounds represented by formula I also display improved pharmacokinetic properties as compared to compounds dissolved in water.
When compound 2 is administered at 10 mg/kg SC excellent plasma drug concentrations are observed_(Cmax=2.0 μg/mL, C1/2=0.8 hrs). […]

15N neuroblastoma cells = experiment: Alamar blue viability assay, 15N neuroblastoma; assay type: cell-based; settings: for IC50: cellular viability after 48 hours, compound dissolved in DMSO
Method: In order to investigate the anti-cancer potential of compounds represented by formula I-a, 15N neuroblastoma cells lines were treated with compound and assayed for cellular viability after 48 hours. The cellular viability of 15N neuroblastomas treated with compounds 1, 5, 6, 11, and 13 (dissolved in DMSO) are summarized in Table 5 (see Compound 152).
Compounds were tested for anti-cancer properties using the Alamar blue viability assay. Daoy human medulloblastoma cells of 15N neuroblastoma cells were plated at a density of 5000 cells per well of a 96 well plate and cultured in RPMI media supplemented with antibiotics and 5% fetal bovine serum. Cells in culture were incubated with compound for 48 hours after which time Alamar blue was added to the culture media. After 4 hours media was transferred to opaque white plates and fluorescence of transformed alamar blue was measured at excitation 535/emission 595).

Microsomal stability = assay type: in vitro ADME; settings: 1 hr
Du145 (prostate) = experiment: Clonogenic assay Du145; assay type: cell-based; settings: compound 24 hours, colonies counted after 7-10 days, read-out: ED50 (the source's name)
Method: (§1) In this paradigm, Du145 prostate, HCT116 colon, 15N Neuroblastoma, IMR32 Neuroblastoma, Daoy Medulloblastoma, and MDAMB231 breast cells are individually plated and allowed to proliferate for 48 hours. Compound is added to the culture and left on for 24 hours, at which time both compound and dead cells are washed off the plate. Fresh media is added and the cells are allowed to grow for an additional 7-10 days. The remaining healthy cells reproduce and formed localized colonies. These colonies are counted and EC50 values are determined relative to non-treated controls.
(§2) Du145 prostate, HCT116 colon, 15N Neuroblastoma, IMR32 Neuroblastoma, Daoy Medulloblastoma, and MDAMB231 breast cells were plated in 6 well plates and allowed to grow for 5 days._Cells were exposed to compound for 24 hours, the culture media was removed and replaced with fresh media. The cells were kept in cultured for 7-10 days after which colonies were counted and EC50 values were determined relative to non-treated controls.

HCT116 (colon) = experiment: Clonogenic assay HCT116; assay type: cell-based; settings: compound 24 hours, colonies counted after 7-10 days, read-out: ED50 (the source's name)
Method: as §1, §2

15 N (neuroblastoma) = experiment: Clonogenic assay 15N; assay type: cell-based; settings: compound 24 hours, colonies counted after 7-10 days, read-out: ED50 (the source's name)
Method: as §1, §2

Daoy (medulloblastoma) = experiment: Clonogenic assay Daoy; assay type: cell-based, human; settings: compound 24 hours, colonies counted after 7-10 days, read-out: ED50 (the source's name)
Method: as §1, §2

MDAMB231 (breast) = experiment: Clonogenic assay MDAMB231; assay type: cell-based; settings: compound 24 hours, colonies counted after 7-10 days, read-out: ED50 (the source's name)
Method: as §1, §2

SCG neurons = settings: cited from earlier work
Sprague Dawley rats = settings: 10 mg/kg, cited from earlier work
RG neurons = settings: intra-vitrial injection or SC 10 mg/kg, cited from earlier work
IMR32 (neuroblastoma) = experiment: Clonogenic assay IMR32; assay type: cell-based; settings: compound 24 hours, colonies counted after 7-10 days, read-out: ED50 (the source's name)
Method: as §1, §2

[2] = test system: motor neurons found in layer V of the cortex; settings: drug concentration 1 μM; malonate; P1 rat motor cortex slices; cited from earlier work
[3] = Stability of solutions/formulations; assay type: physicochemical
Source text: (§3) This is illustrated for compound 15 in Table 7.

[4] = Pharmacokinetics and in vivo conversion of N-acylsulfonamides in rats (SC); parameters: species or system rat; settings: subcutaneously, 10 mg/mL
Method: When administered to rats subcutaneously, compound 15 (10 mg/mL) is well distributed (Cmax=20 μg/mL in plasma). Conversion of compound 15 to 1 is observed with plasma levels of 1 reaching a Cmax of 0.5-1 μg/mL. Conversion of compound 16 to compound 1 is observed with plasma levels of 1 reaching a Cmax of 3 μg/mL Similar in vivo conversion is observed for select compounds listed in table 5 with whole blood drug concentrations being similar to that of their respective primary sulfonamide sodium salts, represented by formula I-a, administered at the same dose in aqueous 10 wt/vol % HPCD.

log P = assay type: physicochemical
pH of formulation = assay type: physicochemical; settings: PBS/HPCD (25:75) solution
Source text: as §3

[5] = Conversion to primary sulfonamide in liver microsomes; assay type: in vitro ADME; settings: after 60 minutes
Method: (§4) Compound 15 is converted to compound 1 in the presence of liver microsomes using the procedure described by Cresteil, T., et al. (Cresteil, T., et al. Am. Soc. Pharm. Exper. Therapeutics, 2002, 30, 438-445). Upwards of 50% conversion is observed after 60 minutes. When incubated with rat primary hepatocytes, the conversion of compounds 15, 37, and 44 to their respective primary sulfonamides, 1, 11, and 13, is observed.

[6] = Conversion to primary sulfonamide in rat primary hepatocytes; assay type: in vitro ADME; settings: 90 minutes
Method: as §4

[7] = Solubility in water and formulations
Method: Alternatively, the sodium salt can be prepared in situ by dissolving the free acid in phosphate buffered saline (PBS) that has been buffered to a pH of 7.4. The solubility and stability of these solutions can be improved by the use of an aqueous soluble co-solvent such as, but not limited to HPCD. This solubility can be further improved by the addition of surfactants such as PEG 400. In general, the free acid is suspended in 10 wt/vol % HPDC (10 g dissolved in 100 mL water) and treated with 0.5M PBS (pH 7.4) such that the volumes are in a ratio of 75:25.

[8] = Taxol induced cell death, read-out: Taxol SCG IC50
[9] = 250 μL 0.5 M PBS + 250 μL 10% HPCD + 500 μL 20% PEG 400

oral bioavailability ([1]; CMC/Tween 80 (semi-)suspension): moderate
Cmax ([1]; aqueous 0.5 wt/vol % CMC/0.5 wt/vol % Tween 80 (semi-)suspension): 0.2 µg/mL
IC50 (15N neuroblastoma cells): ~20 µM and 20 µM
Microsomal Stability (1 hr) (Microsomal stability): 90%
EC50 (Du145 (prostate)): 8 µM
EC50 (HCT116 (colon)): 12 µM
EC50 (15 N (neuroblastoma)): 7 µM
EC50 (Daoy (medulloblastoma)): > 5000 nM
EC50 (MDAMB231 (breast)): > 5000 nM
Structure (SMILES): NS(=O)(=O)c1nn2cc(-c3ccccc3)nc2s1 [Compound 1]
IC50 (SCG neurons; [8]): 7 µM
IC50 (SCG neurons; anti-NGF induced cell death, read-out: anit-NGF SCG IC50): 22 µM
IC50 (SCG neurons; cisplatin induced cell death, read-out: cisplatin SCG IC50): 5 µM
IC50 (SCG neurons; vincristine induced cell death, read-out: vincristine SCG IC50): 10 µM
weight gain (Sprague Dawley rats; Taxol 9 mg/kg twice weekly for 3 weeks): normal weight gain
loss in foot pad contact (Sprague Dawley rats; Taxol alone 46% loss): 23%
histology of RG layer (RG neurons): healthy RG layers
electro-retinogram (ERG) (RG neurons; versus vehicle): significant improvements

IC50 (15N neuroblastoma cells): 2 µM
Microsomal Stability (1 hr) (Microsomal stability): 60%
EC50 (HCT116 (colon)): 1.5 µM
EC50 (15 N (neuroblastoma)): 0.75 µM
EC50 (Daoy (medulloblastoma)): 1000 nM
EC50 (MDAMB231 (breast)): 1000 nM
Structure (SMILES): NS(=O)(=O)c1nn2cc(-c3ccc(-c4cccc(C(F)(F)F)c4)cc3)nc2s1 [Compound 11]
fold increase in activity over compound 1 (15N neuroblastoma cells; 15N neuroblastoma): 10 fold
IC50 (SCG neurons; [8]): 2 µM

IC50 (15N neuroblastoma cells): 10 µM
Microsomal Stability (1 hr) (Microsomal stability): 85%
EC50 (Du145 (prostate)): 8 µM
EC50 (IMR32 (neuroblastoma)): 750 nM
Structure (SMILES): NS(=O)(=O)c1nn2cc(-c3ccc(Oc4ccc(Cl)cc4)cc3)nc2s1 [Compound 13]
IC50 (SCG neurons; [8]): 3 µM
protection of SMI-32 labeled motor neurons [2]: > 80%

Stability [3, 9]: >4 weeks
Stability ([3]; 1000 μL 0.5 M PBS): 1 to 2 days
Stability in 10 wt/vol HPCD ([3]; PBS/HPCD (25:75) solution): >4 weeks
Cmax in plasma [4]: 20 µg/mL
log P (log P): 2.6
pH (pH of formulation): 7.4
conversion to compound 1 [5]: > 50%
conversion rate to primary sulfonamide [6]: 6%
dissolution ([7]; 25 mg in 1 mL PEG 400/ethanol (50:50) + ethanolamine (20 μL)): clear solution
clear solution concentration ([7]; 10 wt/vol % HPCD + 1 equiv of ethanolamine, dimethylaminoethanol or 4-aminopyridine): 5 to 10 mg/mL
solubility [7, 9]: 25 mg/mL
solubility ([7]; 250 μL 0.5 M PBS + 750 μL 10% HPCD): 10 mg/mL
Solubility in 10 wt/vol HPCD ([7]; PBS/HPCD (25:75) solution): 10 mg/mL (≈ 31 mM)
Structure (SMILES): CC(=O)NS(=O)(=O)c1nn2cc(-c3ccccc3)nc2s1 [Compound 15]
